Measurements reported in PMC11679558, “Novel Peptidomimetic Cyclo-{E(I)-E(W)}Na (CP-88) with Hematopoietic Activity Sustained in Invasive and Oral Administration: Experimental and Preclinical Evaluation” (International Journal of Molecular Sciences, 2024).
Peptide text beside a SMILES is read from it.

Columns and labels:
[1] = cited from earlier work
Text: Several cyclopeptides (A1–A5) indicated stimulatory hematopoietic activity sustained in invasive and oral administration.

mice (CBA/C57BL6) F1 = test: Acute toxicity of CP-88 in mice; type: in vivo; conditions: male and female mice, intraperitoneally once, 0.2 mL per animal; doses 500, 1000 and 10,000 μg/kg
Description: This study of acute and chronic toxicity of CP-88 was conducted under the requirements of regulatory documents that regulate this study and are part of a complex of preclinical studies on acute and chronic toxicity that are required for the registration of drugs. Fifty-six male and fifty-six female mice, line (CBA/C57BL6) F1, were used for this study.
To determine acute toxicity, peptide was administered to male and female mice (CBA/C57BL6) F1 (56 male and 56 female mice). The animals were obtained from the Scientific and Production Enterprise “Stolbovaya” Laboratory Animal Nursery, Moscow Region, at the age of 4 weeks. Upon receipt, an external examination of the animal’s condition was conducted.
The drug was administered in the form of aqueous solutions intraperitoneally in doses of 500, 1000, and 10,000 μg/kg in a volume of 0.2 mL per mouse, which exceeded the effective doses of the drug by 50 to 1000 times. Animals of the same batch, injected with distilled water in a volume of 0.2 mL per animal (control substance), were used as a biological control.

[2] = Interspecies extrapolation of the toxicological results to humans; conditions: interspecies extrapolation from the toxicological test results
Description: The toxicological test results conclude that in humans, considering interspecies extrapolation, CP-88 can be practically safe with a single and course administration in doses of up to 100 μg/kg. In the first phase of clinical trials, it is advisable to test the drug for tolerability, starting with a dose of 1 μg/kg. The dose can be increased to 10 μg/kg daily with no adverse reactions detected in the clinical results.

[3] = Pharmacokinetics of Stemokin in mice using 3H-Stemokin; type: in vivo; conditions: parenteral administration
Description: The additional goal of this study was to estimate Stemokin’s pharmacokinetics using 3H-Stemokin.
The main radioactivity was accumulated in the bone marrow. This exceptional tropism to bone marrow could explain its significant hemostimulating activity (Table 4 and Table 5, line 3 underlying the extraordinary tropism of Stemokin to Bone marrow tissue).
Pharmacokinetics of Stemokin With parenteral administration of the drug, a Cmax in the blood was achieved after 5 min […]. A Cmax was observed 30–40 min after administration in bone marrow, liver, kidneys, and lymph nodes. The drug’s T1/2 is 24 h and is eliminated from the body within 72 h. The pharmacokinetics of Stemokin was studied using ^3H-Stemokin, obtained by thermal activation of gaseous tritium. 3H-Stemokin was administered intramuscularly to BDF1 female mice, and 72 h after a single dose, the levels of ^3H-radioactivity were determined in animal organs and tissues. The main amount of radioactivity, ~80%, was excreted within 24 h after administration of ^3H-Stemokin and was less than 5% of the administered dose (Table 4 and Table 5).

c[DPheDGlu(DTrp)] [B6]
immuno and hemosuppressive activity (in words) [1]: immuno and hemosuppressive activity

c[DLysDGlu(DTrp)] [B5]
immuno and hemosuppressive activity (in words) [1]: immuno and hemosuppressive activity

cyclo[Lys(Palmitoyl)-Glu(D-Trp)] [E3]
adjuvant activity (in words) [1]: adjuvant activity

CC[C@H](C)[C@H](NC(=O)CC[C@@H]1NC(=O)[C@H](CCC(=O)N[C@@H](Cc2c[nH]c3ccccc23)C(=O)O)NC1=O)C(=O)O [CP-88, Cyclo-[Glu(Ile)-Glu(Trp)]]
acute toxicity: doses with no toxic effects (mice (CBA/C57BL6) F1): up to 10,000 µg/kg
practically safe dose in humans with a single and course administration [2]: up to 100 μg/kg

CC[C@H](C)[C@H](N)C(=O)N[C@@H](CCC(=O)O)C(=O)N[C@@H](Cc1c[nH]c2ccccc12)C(=O)O [Stemokin, Ile-Glu-Trp] (H-Ile-Glu-Trp-OH)
T1/2 [3]: 24 h
time to Cmax in bone marrow, liver, kidneys, and lymph nodes [3]: 30 to 40 min
time within which the drug is eliminated from the body [3]: ≤ 72 h

c[DAlaDGlu(DTrp)] [B1]
immuno and hemosuppressive activity (in words) [1]: immuno and hemosuppressive activity

cyclo[L-Lys(N-acetyl-Glucosamine-N-acetyl-muramyl)-L-Glu(L-Trp)] [E1]
adjuvant activity (in words) [1]: adjuvant activity

c[DTyrDGlu(DTrp)] [B9]
immuno and hemosuppressive activity (in words) [1]: immuno and hemosuppressive activity
